# Measured values: article PMC5025651, “Reprofiled anthelmintics abate hypervirulent stationary-phase Clostridium difficile” (Scientific Reports, 2016)
# Where two headings read alike, the source gives them in different places.
# Assays:
# S. aureus RN4220 = experiment: MIC by broth microdilution; format: cell-based; conditions: Staphylococcus aureus, CAMHB, aerobic, duplicate
# [1] = tested on: L. reuteri Strain CF48-3A; experiment: MIC by broth microdilution; format: cell-based, Lactobacillus reuteri; conditions: Limosilactobacillus reuteri
# [2] = tested on: C. difficile isolate 20110973 (ribotype 106); experiment: MIC by broth microdilution; format: cell-based, Clostridium difficile; conditions: Clostridioides difficile
# C. sporogenes ATCC 15579 = experiment: MIC by broth microdilution; format: cell-based; conditions: Clostridium sporogenes, ATCC15579, BHIS, anaerobic, duplicate
# P. nigrescens ATCC 33563 = experiment: MIC by broth microdilution; format: cell-based; conditions: Prevotella nigrescens, ATCC33563
# [3] = tested on: C. difficile isolate 20110742 (ribotype 002); experiment: MIC by broth microdilution; format: cell-based, Clostridium difficile; conditions: Clostridioides difficile
# [4] = tested on: C. difficile isolate 20110869 (ribotype 001_072); experiment: MIC by broth microdilution; format: cell-based, Clostridium difficile; conditions: Clostridioides difficile
# [5] = tested on: C. difficile isolate 20100422 (ribotype 054); experiment: MIC by broth microdilution; format: cell-based, Clostridium difficile; conditions: Clostridioides difficile
# P. distasonis ATCC 8503 = experiment: MIC by broth microdilution; format: cell-based; conditions: Parabacteroides distasonis, ATCC8503
# 16 C. difficile isolates = experiment: MIC by broth microdilution, summary over 16 C. difficile isolates; format: cell-based, Clostridium difficile; conditions: for MIC50 / MIC90: Clostridioides difficile; for MIC Range: range over 16 C. difficile isolates
# [6] = tested on: B. thetaiotaomicron ATCC 29148; experiment: microbe, parasite or virus in culture; format: cell-based; conditions: Bacteroides thetaiotaomicron, ATCC29148
# [7] = tested on: C. difficile isolate 20110740 (ribotype 018); experiment: MIC by broth microdilution; format: cell-based, Clostridium difficile; conditions: Clostridioides difficile
# [8] = tested on: C. difficile isolate 20120016 (ribotype 019); experiment: MIC by broth microdilution; format: cell-based, Clostridium difficile; conditions: Clostridioides difficile
# [9] = tested on: B. breve Strain EX336960VC19; experiment: MIC by broth microdilution; format: cell-based; conditions: Bifidobacterium breve
# [10] = tested on: B. longum subsp. longum Strain 44B; experiment: MIC by broth microdilution; format: cell-based; conditions: Bifidobacterium longum
# [11] = tested on: C. difficile isolate 20121190 (ribotype 126); experiment: MIC by broth microdilution; format: cell-based, Clostridium difficile; conditions: Clostridioides difficile
# [12] = tested on: C. difficile isolate 20110960 (ribotype 017); experiment: MIC by broth microdilution; format: cell-based, Clostridium difficile; conditions: Clostridioides difficile
# [13] = tested on: C. difficile isolate 20110961 (ribotype A12); experiment: MIC by broth microdilution; format: cell-based, Clostridium difficile; conditions: Clostridioides difficile
# [14] = tested on: C. clostridioforme ATCC 25537; experiment: MIC by broth microdilution; format: cell-based, Clostridium clostridioforme; conditions: Clostridium, ATCC25537
# Hemolysis assay = format: cell-based; conditions: sheep, pH 7.4, 32 µg/mL, 1 h, 37 °C, 1% Triton X-100 positive control, triplicate, read-out: Hemolysis (%)
# Procedure: Sheep red blood cells (Innovative Research, Novi, MI, USA) were washed three times with PBS pH 7.4. A 3% cell suspension in PBS (100 μL) was added to test compounds in PBS (100 μL, to a final concentration of 32 μg/mL), and then incubated at 37 °C for 1 h. The plate was centrifuged at 500 × g for 10 min, and supernatants (100 μL) were transferred to a clean 96-well plate. Hemolysis was determined by measuring absorbance at 540 nm, with 1% Triton X-100 as the positive control and 0.5% DMSO in PBS as the negative control. Hemolysis assays were performed in triplicate.
# [15] = tested on: C. difficile isolate 20121412 (ribotype 047); experiment: MIC by broth microdilution; format: cell-based, Clostridium difficile; conditions: Clostridioides difficile
# C. difficile strain 4118 [16] = experiment: Minimum bactericidal concentration (MBC), logarithmic- and stationary-phase cells; format: cell-based, Clostridium difficile
# Procedure: The procedure for MBC determination was adapted from that of Alam et al.[44]. Briefly, a single overnight colony of C. difficile strain 4118 (streaked onto blood agar plate) was suspended in BHIS and grown to OD600 ~ 0.4–0.5 (logarithmic phase) or for 24 h (stationary phase). In 96-well microtiter plates, cultures were added to two-fold serial dilutions of test compounds in BHIS and incubated for 20–24 h at 37 °C in an anaerobic chamber. […] MBC measurements were performed in duplicate.
# [17] = tested on: C. difficile strain 4118 (CD4118, ATCC BAA-1870, ribotype 027); experiment: MIC by broth microdilution; format: cell-based, Clostridium difficile; conditions: for MIC: Clostridioides difficile
# C. difficile strain 4118 [18] = experiment: Time-kill kinetics against stationary-phase cultures; format: cell-based, Clostridium difficile
# Procedure: At t = 0, 3, 6 and 24 h, sample aliquots were withdrawn from the treated cultures and bacterial viability was scored by plating serial dilutions on BHIS agar plates. The agar plates were incubated in the anaerobic chamber for 20–24 h at 37 °C. Kinetic experiments were performed at least twice.
# [19] = tested on: C. difficile isolate 20110566 (ribotype 020); experiment: MIC by broth microdilution; format: cell-based, Clostridium difficile; conditions: Clostridioides difficile
# L. plantarum ATCC 8014 = experiment: MIC by broth microdilution; format: cell-based; conditions: Lactiplantibacillus plantarum
# P. aeruginosa PAO1 = experiment: MIC by broth microdilution; format: cell-based; conditions: Pseudomonas aeruginosa
# [20] = tested on: B. fragilis Strain CL05T00C42; experiment: MIC by broth microdilution; format: cell-based; conditions: Bacteroides fragilis
# [21] = tested on: C. difficile isolate 20111163 (ribotype 024); experiment: MIC by broth microdilution; format: cell-based, Clostridium difficile; conditions: Clostridioides difficile
# B. subtilis ATCC 6051 = experiment: MIC by broth microdilution; format: cell-based; conditions: Bacillus subtilis, ATCC6051
# S. epidermidis 1457 = experiment: MIC by broth microdilution; format: cell-based; conditions: Staphylococcus epidermidis
structure (smiles),measurement,setting,value
"Cc1ncc([N+](=O)[O-])n1CCO [Metronidazole, metronidazole]",MIC,S. aureus RN4220,> 32 µg/mL
same,MIC,"[1]; L. reuteri CF48-3A, CAMHB with 5% laked horse blood, ~48 h, duplicate, read-out: MIC",> 32 µg/mL
same,MIC,"[2]; isolate 20110973, ribotype 106, duplicate, read-out: MIC",0.25 µg/mL
same,MIC,C. sporogenes ATCC 15579,0.25 µg/mL
same,MIC,"P. nigrescens ATCC 33563; P. nigrescens ATCC 33563, supplemented Brucella broth, anaerobic, duplicate, read-out: MIC",2 µg/mL
same,MIC,"[3]; isolate 20110742, ribotype 002, duplicate, read-out: MIC",0.13 µg/mL
same,MIC,"[4]; isolate 20110869, ribotype 001_072, duplicate, read-out: MIC",0.25 µg/mL
same,MIC,"[5]; isolate 20100422, ribotype 054, duplicate, read-out: MIC",0.25 µg/mL
same,MIC,"P. distasonis ATCC 8503; P. distasonis ATCC 8503, supplemented Brucella broth, anaerobic, duplicate, read-out: MIC",2 µg/mL
same,MIC50,"16 C. difficile isolates; MIC at which 50% of the 16 isolates are inhibited, n = 2, read-out: MIC50",0.25 µg/mL
same,MIC90,"16 C. difficile isolates; MIC at which 90% of the 16 isolates are inhibited, n = 2, read-out: MIC90",0.25 µg/mL
same,MIC Range,16 C. difficile isolates; n = 2,0.13 to 0.25 µg/mL
same,MIC,[6],1 µg/mL
same,MIC,"[7]; isolate 20110740, ribotype 018, duplicate, read-out: MIC",0.25 µg/mL
same,MIC,"[8]; isolate 20120016, ribotype 019, duplicate, read-out: MIC",0.25 µg/mL
same,MIC,"[9]; B. breve EX336960VC19, LSM broth, anaerobic, duplicate, read-out: MIC",> 32 µg/mL
same,MIC,"[10]; B. longum subsp. longum 44B, LSM broth, anaerobic, duplicate, read-out: MIC",4 to 8 µg/mL
same,MIC,"[11]; isolate 20121190, ribotype 126, duplicate, read-out: MIC",0.13 µg/mL
same,MIC,"[12]; isolate 20110960, ribotype 017, duplicate, read-out: MIC",0.25 µg/mL
same,MIC,"[13]; isolate 20110961, ribotype A12, duplicate, read-out: MIC",0.25 µg/mL
same,MIC,"[14]; C. clostridioforme ATCC 25537, BHIS, anaerobic, duplicate, read-out: MIC",0.06 µg/mL
same,"hemolysis at 1 h, 32 µg/mL",Hemolysis assay; sheep red blood cells (3% suspension),< 1%
same,MIC,"[15]; isolate 20121412, ribotype 047, duplicate, read-out: MIC",0.25 µg/mL
same,MBC,"C. difficile strain 4118 [16]; Clostridioides difficile, 4118, minimum bactericidal concentration (≥3-log reduction) for logarithmic-phase cells, 20–24 h, n = 2, read-out: MBClog",> 32 µg/mL
same,MBC,"C. difficile strain 4118 [16]; Clostridioides difficile, 4118, minimum bactericidal concentration (≥3-log reduction) for stationary-phase cells, 20–24 h, n = 2, read-out: MBCstat",> 32 µg/mL
same,log reduction of CD4118 stationary-phase cells,"C. difficile strain 4118 [16]; at 32 μg/mL, 20–24 h",< 3 log
same,MIC,"[17]; ATCCBAA1870, BHIS broth, anaerobic, 20–24 h, n = 2, read-out: MIC C. difficile 4118",0.25 µg/mL
same,log killing of CD4118 stationary-phase cells,"C. difficile strain 4118 [18]; 16× MIC (metronidazole 4 μg/mL, vancomycin 32 μg/mL), up to 24 h",< 3 log
same,MIC,"[19]; isolate 20110566, ribotype 020, duplicate, read-out: MIC",0.25 µg/mL
same,MIC,"L. plantarum ATCC 8014; ATCC8014, L. plantarum ATCC 8014, CAMHB with 5% laked horse blood, ~48 h, duplicate, read-out: MIC",> 32 µg/mL
same,MIC,"P. aeruginosa PAO1; P. aeruginosa PAO1, CAMHB, aerobic, duplicate, read-out: MIC",> 32 µg/mL
same,MIC,"[20]; B. fragilis CL05T00C42, supplemented Brucella broth, anaerobic, duplicate, read-out: MIC",0.5 µg/mL
same,MIC,"[21]; isolate 20111163, ribotype 024, duplicate, read-out: MIC",0.13 µg/mL
same,MIC,"B. subtilis ATCC 6051; B. subtilis ATCC 6051, CAMHB, aerobic, duplicate, read-out: MIC",> 32 µg/mL
same,MIC,"S. epidermidis 1457; S. epidermidis 1457, CAMHB, aerobic, duplicate, read-out: MIC",> 32 µg/mL
"O=C(Nc1ccc(Oc2ccc(Cl)cc2)c(Cl)c1)c1cc(I)cc(I)c1O [Rafoxanide, rafoxanide]",MIC,S. aureus RN4220,0.25 µg/mL
same,MIC,[1]; 48 h,16 µg/mL
same,MIC,[2],0.06 µg/mL
same,MIC,C. sporogenes ATCC 15579,1 µg/mL
same,MIC,P. nigrescens ATCC 33563,8 µg/mL
same,MIC,[3],0.06 µg/mL
same,MIC,[4],0.13 µg/mL
same,MIC,[5],0.13 µg/mL
same,MIC,P. distasonis ATCC 8503,8 µg/mL
same,MIC50,16 C. difficile isolates,0.06 µg/mL
same,MIC90,16 C. difficile isolates,0.13 µg/mL
same,MIC Range,16 C. difficile isolates; n = 2,0.03 to 0.13 µg/mL
same,MIC,[6],> 32 µg/mL
same,MIC,[7],0.06 µg/mL
same,MIC,[8],0.13 µg/mL
same,MIC,[9],16 to 32 µg/mL
same,MIC,[10],8 µg/mL
same,MIC,[11],0.13 µg/mL
same,MIC,[12],0.06 µg/mL
same,MIC,[13],0.06 µg/mL
same,MIC,[14],1 µg/mL
same,"hemolysis at 1 h, 32 µg/mL",Hemolysis assay,< 1%
same,MIC,[15],0.03 µg/mL
same,MBC,"C. difficile strain 4118 [16]; Clostridioides difficile, 4118, read-out: MBClog",0.5 µg/mL
same,MBC,"C. difficile strain 4118 [16]; Clostridioides difficile, 4118, read-out: MBCstat",1 µg/mL
same,MIC C. difficile 4118,"[17]; BHIS broth, anaerobic, 20–24 h, n = 2",0.13 µg/mL
same,MIC,"[17]; ATCCBAA1870, read-out: MIC C. difficile 4118",0.13 µg/mL
same,log decrease in the number of CFUs,"C. difficile strain 4118 [18]; 4 × MIC, 24 h, stationary-phase CD4118",2.7 log
same,time to eradicate >99.9% of viable cells,"C. difficile strain 4118 [18]; 16× MIC (rafoxanide 2 μg/mL, closantel 4 μg/mL, compound 8 1 μg/mL), stationary-phase CD4118",6 h
same,MIC,[19],0.06 µg/mL
same,MIC,"L. plantarum ATCC 8014; ATCC8014, 48 h",32 µg/mL
same,MIC,P. aeruginosa PAO1; PAO1,> 32 µg/mL
same,MIC,[20],32 µg/mL
same,MIC,[21],0.06 µg/mL
same,MIC,B. subtilis ATCC 6051,≤ 0.03 µg/mL
same,MIC,S. epidermidis 1457; 1457,≤ 0.03 µg/mL
